Key:
[1] = biological target: T1, SYK kinase (Homo sapiens, UniProt P43405); assay: SYK Assay (OMNIA KINASE ASSAY, SOX peptide fluorescence); type: biochemical; settings: apparent Ki calculated from the IC50 using the Cheng-Prusoff equation; 1 mM ATP, 30° C.; read-out: SYK Activities: Ki
T1 construct: purchased Invitrogen, Carlsbad
Summary of the method: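 Apparent Ki values are derived by Cheng-Prusoff from IC50s of sigmoidal fits of reaction rate against compound concentration. Rates come from chelation-enhanced SOX fluorescence (λex 360/λem 485 nm, read every 30 s over 30 min) as the kinase phosphorylates 10 µM Omnia Tyr 7 peptide at 30 °C, with 1 mM ATP and 0.2 mM DTT.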

[2] = biological target: MYLK (Homo sapiens, UniProt Q15746); assay: MYLK Assay (LanthaScreen Eu Kinase Binding Assay); settings: 5 nM MYLK, 30 nM tracer 236, RT 1 h; read-out: MYLK Activities: IC50
Sequence of MYLK (Q15746 whole entry): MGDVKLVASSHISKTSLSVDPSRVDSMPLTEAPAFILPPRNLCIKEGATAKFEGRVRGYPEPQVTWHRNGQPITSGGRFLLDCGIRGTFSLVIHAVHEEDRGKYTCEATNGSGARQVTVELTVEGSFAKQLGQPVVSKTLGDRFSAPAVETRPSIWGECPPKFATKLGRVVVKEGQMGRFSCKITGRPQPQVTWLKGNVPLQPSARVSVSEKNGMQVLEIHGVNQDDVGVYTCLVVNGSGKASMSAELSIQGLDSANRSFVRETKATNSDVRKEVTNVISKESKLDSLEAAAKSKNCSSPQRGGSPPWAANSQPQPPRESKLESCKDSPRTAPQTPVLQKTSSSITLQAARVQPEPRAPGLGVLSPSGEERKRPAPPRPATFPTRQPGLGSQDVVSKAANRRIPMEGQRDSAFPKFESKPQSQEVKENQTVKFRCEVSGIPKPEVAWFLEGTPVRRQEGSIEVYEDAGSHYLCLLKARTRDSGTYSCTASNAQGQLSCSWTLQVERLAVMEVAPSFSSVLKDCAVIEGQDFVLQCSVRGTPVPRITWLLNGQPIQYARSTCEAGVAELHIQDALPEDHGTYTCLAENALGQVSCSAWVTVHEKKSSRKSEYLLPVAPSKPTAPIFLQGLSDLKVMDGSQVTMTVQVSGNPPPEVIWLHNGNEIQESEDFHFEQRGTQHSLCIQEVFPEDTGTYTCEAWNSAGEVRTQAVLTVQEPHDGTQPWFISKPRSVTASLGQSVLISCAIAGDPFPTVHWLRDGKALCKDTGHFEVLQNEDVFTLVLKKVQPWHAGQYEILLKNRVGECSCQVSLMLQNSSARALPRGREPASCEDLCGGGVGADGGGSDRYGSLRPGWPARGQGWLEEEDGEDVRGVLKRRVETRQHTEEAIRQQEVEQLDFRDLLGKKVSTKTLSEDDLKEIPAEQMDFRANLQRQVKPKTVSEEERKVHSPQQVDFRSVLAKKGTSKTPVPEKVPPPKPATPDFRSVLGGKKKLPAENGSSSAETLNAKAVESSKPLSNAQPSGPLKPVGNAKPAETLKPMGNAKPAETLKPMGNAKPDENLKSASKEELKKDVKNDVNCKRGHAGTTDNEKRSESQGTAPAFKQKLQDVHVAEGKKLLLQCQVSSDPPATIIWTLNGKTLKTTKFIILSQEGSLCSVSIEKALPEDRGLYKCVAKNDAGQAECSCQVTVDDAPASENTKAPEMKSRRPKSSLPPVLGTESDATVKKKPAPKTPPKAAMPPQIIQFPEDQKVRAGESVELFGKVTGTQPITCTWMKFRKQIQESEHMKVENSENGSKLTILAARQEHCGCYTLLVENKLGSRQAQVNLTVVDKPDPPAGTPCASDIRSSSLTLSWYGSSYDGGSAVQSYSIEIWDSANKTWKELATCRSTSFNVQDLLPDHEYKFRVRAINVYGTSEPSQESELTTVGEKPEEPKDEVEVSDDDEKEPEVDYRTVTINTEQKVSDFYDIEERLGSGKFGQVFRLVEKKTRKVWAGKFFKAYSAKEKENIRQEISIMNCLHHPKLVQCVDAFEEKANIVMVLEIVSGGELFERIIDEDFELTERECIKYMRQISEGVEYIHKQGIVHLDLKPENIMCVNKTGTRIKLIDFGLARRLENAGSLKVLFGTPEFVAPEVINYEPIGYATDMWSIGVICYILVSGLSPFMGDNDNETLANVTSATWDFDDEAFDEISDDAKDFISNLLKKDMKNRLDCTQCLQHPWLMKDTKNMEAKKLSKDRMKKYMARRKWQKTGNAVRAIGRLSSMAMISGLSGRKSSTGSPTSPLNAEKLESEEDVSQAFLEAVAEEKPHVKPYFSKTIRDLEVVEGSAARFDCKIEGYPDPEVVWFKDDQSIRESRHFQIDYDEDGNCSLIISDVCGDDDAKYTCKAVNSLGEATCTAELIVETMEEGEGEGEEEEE
Experimental: In the assay LanthaScreen™ Eu Kinase Binding Assay by Invitrogen Corporation (Carlsbad) the effect of invention of a compound on the phosphorylation is determined by measurement of fluorescence intensity emission ratio based on the binding and displacement of a proprietary, Alexa Fluor® 647-labeled, ATP-competitive kinase inhibitor scaffold (kinase tracer) to the kinase of interest as described above.
To the wells of an 384 well small volume plate (Greiner, Frickenhausen) are added (i) the compound under test in 5% is DMSO/distilled water (5 μl), (ii) 5 μl of the kinase antibody mixture resulting in a final concentration 5 nM MYLK, 2 nM EU-Anti-GST antibody in 1× kinase buffer A. The reaction was started with addition of (iii) 5 μl resulting in a final concentration of 30 nM tracer 236. The assay plate was incubated at RT for 1 h and fluorescence intensity readings were collected using a TECAN M1000 at two wavelengths of λex 340/λem 615 nm and λex 340/λem 665 nm with a delay time of 100 μs and an integration time of 200 μs after 60 minutes. The emission ratio was calculated by division of the acceptor/tracer emission ([…]) by the antibody/donor emission ([…]). The inhibitor concentration was plotted versus the emission ratio to determine the IC50 using XLFit 5.0 (IDBS, Guildford) to fit to a sigmoidal dose response curve with a variable slope.

[3] = biological target: LRRK2 (Homo sapiens, UniProt Q5S007); assay: LRRK2-LRRK2 G2019S-Assay (LanthaScreen Eu Kinase Binding Assay); settings: 5 nM LRRK2 or their mutants, 10 nM tracer 236, RT 1 h; read-out: LRRK2 Activities: IC50
Sequence of LRRK2 (Q5S007 970-2527 limits assumed): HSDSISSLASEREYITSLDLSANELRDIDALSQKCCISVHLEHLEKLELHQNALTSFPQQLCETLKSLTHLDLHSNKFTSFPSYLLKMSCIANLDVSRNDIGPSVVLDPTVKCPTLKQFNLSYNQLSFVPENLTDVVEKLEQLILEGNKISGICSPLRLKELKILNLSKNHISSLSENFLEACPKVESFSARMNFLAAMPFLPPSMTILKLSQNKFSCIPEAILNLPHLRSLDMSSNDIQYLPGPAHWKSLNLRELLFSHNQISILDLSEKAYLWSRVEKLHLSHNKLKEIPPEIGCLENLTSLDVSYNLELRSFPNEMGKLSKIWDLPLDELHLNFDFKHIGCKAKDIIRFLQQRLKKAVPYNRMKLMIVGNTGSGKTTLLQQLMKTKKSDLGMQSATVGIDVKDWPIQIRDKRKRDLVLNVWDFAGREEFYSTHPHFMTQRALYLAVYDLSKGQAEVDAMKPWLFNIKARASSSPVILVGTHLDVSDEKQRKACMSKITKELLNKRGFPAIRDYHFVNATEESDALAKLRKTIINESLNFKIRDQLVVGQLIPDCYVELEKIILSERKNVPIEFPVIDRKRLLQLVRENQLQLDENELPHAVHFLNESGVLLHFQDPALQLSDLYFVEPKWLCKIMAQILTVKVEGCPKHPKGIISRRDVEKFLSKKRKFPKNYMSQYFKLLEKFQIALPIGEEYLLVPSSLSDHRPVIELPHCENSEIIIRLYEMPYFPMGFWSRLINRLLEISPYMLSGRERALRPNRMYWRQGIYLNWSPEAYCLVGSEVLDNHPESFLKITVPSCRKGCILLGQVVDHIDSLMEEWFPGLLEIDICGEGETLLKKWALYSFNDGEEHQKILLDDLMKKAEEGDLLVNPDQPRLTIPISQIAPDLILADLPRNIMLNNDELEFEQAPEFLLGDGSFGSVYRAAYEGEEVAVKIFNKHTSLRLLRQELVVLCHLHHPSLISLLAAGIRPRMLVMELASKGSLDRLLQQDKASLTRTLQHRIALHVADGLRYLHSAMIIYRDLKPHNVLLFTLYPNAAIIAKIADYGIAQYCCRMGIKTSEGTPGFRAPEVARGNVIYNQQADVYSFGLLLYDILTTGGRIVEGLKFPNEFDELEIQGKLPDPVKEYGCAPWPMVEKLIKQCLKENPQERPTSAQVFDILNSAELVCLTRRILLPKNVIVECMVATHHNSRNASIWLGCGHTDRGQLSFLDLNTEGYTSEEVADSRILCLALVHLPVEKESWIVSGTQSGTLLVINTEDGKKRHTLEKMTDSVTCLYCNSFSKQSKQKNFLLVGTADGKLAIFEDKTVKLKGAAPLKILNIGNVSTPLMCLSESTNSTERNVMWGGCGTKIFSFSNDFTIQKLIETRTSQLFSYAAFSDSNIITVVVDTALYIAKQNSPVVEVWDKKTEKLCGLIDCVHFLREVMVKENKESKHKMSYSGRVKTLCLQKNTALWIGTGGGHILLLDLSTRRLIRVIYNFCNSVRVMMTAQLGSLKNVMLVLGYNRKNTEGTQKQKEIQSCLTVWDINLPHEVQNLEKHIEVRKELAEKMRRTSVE
Summary of the method: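 Kinase (wild type or mutant, 5 nM) mixed with Eu-anti-GST antibody (2 nM), then 10 nM Alexa Fluor 647 tracer 236 added. After 1 h at room temperature, the acceptor/donor (665/615 nm) FRET ratio was measured. IC50 was fitted from concentration–ratio curves.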

| Compound | Ki [1] [µM] | IC50 [2] [µM] | IC50 [3] [µM] |
| --- | --- | --- | --- |
| COc1cccc(Nc2nc(-c3ccccc3)nc3cn[nH]c23)c1 [Example #8, N-(3-methoxyphenyl)-5-phenyl-1H-pyrazolo[4,3-d]pyrimidin-7-amine] | 0.01 to 0.1 | < 5 | – |
| c1cc(Nc2nc(-c3cc[nH]n3)nc3cn[nH]c23)n[nH]1 [Example #45, N,5-di(1H-pyrazol-3-yl)-1H-pyrazolo[4,3-d]pyrimidin-7-amine] | 0.1 to 1 | < 5 | – |
| c1ccc(-c2nc(Nc3cc(C4CC4)[nH]n3)c3[nH]ncc3n2)cc1 [Example #57, N-(5-cyclopropyl-1H-pyrazol-3-yl)-5-phenyl-1H-pyrazolo[4,3-d]pyrimidin-7-amine] | 0.01 to 0.1 | < 5 | – |
| Cc1nc2cc(Nc3nc(-c4cccc(S(C)(=O)=O)c4)nc4cn[nH]c34)ccc2[nH]1 [Example #252, N-(2-methyl-1H-benzo[d]imidazol-5-yl)-5-(3-(methylsulfonyl)phenyl)-1H-pyrazolo[4,3-d]pyrimidin-7-amine] | 0.01 to 0.1 | < 5 | – |
| O=S(=O)(CCO)c1cccc(Nc2nc(-c3cccs3)nc3cn[nH]c23)c1 [Example #255, 2-((3-((5-(thiophen-2-yl)-1H-pyrazolo[4,3-d]pyrimidin-7-yl)amino)phenyl)sulfonyl)ethan-1-ol] | 0.1 to 1 | < 5 | – |
| CNS(=O)(=O)c1cccc(Nc2nc(-c3cccs3)nc3cn[nH]c23)c1 [Example #265, N-methyl-3-((5-(thiophen-2-yl)-1H-pyrazolo[4,3-d]pyrimidin-7-yl)amino)benzenesulfonamide] | 0.1 to 1 | – | 0.1 to 1 |
| Fc1ccc(-c2nc(Nc3ccc(N4CCOCC4)cc3)c3[nH]ncc3n2)cc1 [Example #271, 5-(4-fluorophenyl)-N-(4-morpholinophenyl)-1H-pyrazolo[4,3-d]pyrimidin-7-amine] | 0.01 to 0.1 | – | 0.1 to 1 |
| CS(=O)(=O)c1cccc(Nc2nc(-c3ccccc3F)nc3cn[nH]c23)c1 [Example #276, 5-(2-fluorophenyl)-N-(3-(methylsulfonyl)phenyl)-1H-pyrazolo[4,3-d]pyrimidin-7-amine] | 0.01 to 0.1 | < 5 | – |
| CS(=O)(=O)c1ccccc1Nc1nc(-c2ccccc2F)nc2cn[nH]c12 [Example #277, 5-(2-fluorophenyl)-N-(2-(methylsulfonyl)phenyl)-1H-pyrazolo[4,3-d]pyrimidin-7-amine] | 0.1 to 1 | < 5 | – |
| Fc1cccc(F)c1-c1nc(Nc2ccc(N3CCOCC3)cc2)c2[nH]ncc2n1 [Example #282, 5-(2,6-difluorophenyl)-N-(4-morpholinophenyl)-1H-pyrazolo[4,3-d]pyrimidin-7-amine] | 0.01 to 0.1 | – | 0.1 to 1 |
| Fc1cccc(F)c1-c1nc(Nc2ccc(N3CCN(C4CC4)CC3)cc2)c2[nH]ncc2n1 [Example #283, N-(4-(4-cyclopropylpiperazin-1-yl)phenyl)-5-(2,6-difluorophenyl)-1H-pyrazolo[4,3-d]pyrimidin-7-amine] | 0.01 to 0.1 | – | 0.1 to 1 |
| Fc1ccc(-c2nc(Nc3ccc(N4CCOCC4)cc3)c3[nH]ncc3n2)c(F)c1 [Example #286, 5-(2,4-difluorophenyl)-N-(4-morpholinophenyl)-1H-pyrazolo[4,3-d]pyrimidin-7-amine] | 0.01 to 0.1 | < 5 | – |
| c1cc(N2CCOCC2)ccc1Nc1nc(-c2ccc3c(c2)NCCO3)nc2cn[nH]c12 [Example #301, 5-(3,4-dihydro-2H-benzo[b][1,4]oxazin-6-yl)-N-(4-morpholinophenyl)-1H-pyrazolo[4,3-d]pyrimidin-7-amine] | 0.01 to 0.1 | – | 0.1 to 1 |
| c1csc(-c2nc(Nc3ccc4c(c3)COC4)c3[nH]ncc3n2)c1 [Example #304, N-(1,3-dihydroisobenzofuran-5-yl)-5-(thiophen-2-yl)-1H-pyrazolo[4,3-d]pyrimidin-7-amine] | < 0.01 | – | 0.1 to 1 |
| CN(C)Cc1ccc(Nc2nc(-c3ccccc3F)nc3cn[nH]c23)cc1 [Example #311, N-(4-((dimethylamino)methyl)phenyl)-5-(2-fluorophenyl)-1H-pyrazolo[4,3-d]pyrimidin-7-amine] | 0.01 to 0.1 | – | 0.1 to 1 |

Now from value to compound:

| Ki [1] [µM] | IC50 [2] [µM] | IC50 [3] [µM] | Compound |
| --- | --- | --- | --- |
| < 0.01 | < 5 | – | COc1ccc(-c2nc(Nc3ccc(C(=O)N4CCCC4)cc3)c3[nH]ncc3n2)cc1 [Example #160, (4-((5-(4-methoxyphenyl)-1H-pyrazolo[4,3-d]pyrimidin-7-yl)amino)phenyl)(pyrrolidin-1-yl)methanone] |
| < 0.01 | < 5 | – | CN1CCN(c2ccc(Nc3nc(-c4cc(C(=O)O)cs4)nc4cn[nH]c34)cc2)CC1 [Example #175, 5-(7-((4-(4-methylpiperazin-1-yl)phenyl)amino)-1H-pyrazolo[4,3-d]pyrimidin-5-yl)thiophene-3-carboxylic acid] |
| < 0.01 | < 5 | – | CN1CCN(c2ccc(Nc3nc(-c4ccc(C(=O)O)cc4)nc4cn[nH]c34)cc2)CC1 [Example #241, 4-(7-((4-(4-methylpiperazin-1-yl)phenyl)amino)-1H-pyrazolo[4,3-d]pyrimidin-5-yl)benzoic acid] |
| < 0.01 | – | < 0.01 | O=C1CCc2ccc(Nc3nc(-c4ccc5cn[nH]c5c4)nc4cn[nH]c34)cc2N1 [Example #269, 7-((5-(1H-indazol-6-yl)-1H-pyrazolo[4,3-d]pyrimidin-7-yl)amino)-3,4-dihydroquinolin-2(1H)-one] |
| < 0.01 | – | 0.1 to 1 | CN1CCN(C2CCN(c3ccc(Nc4nc(-c5ccccc5F)nc5cn[nH]c45)cc3)CC2)CC1 [Example #278, 5-(2-fluorophenyl)-N-(4-(4-(4-methylpiperazin-1-yl)piperidin-1-yl)phenyl)-1H-pyrazolo[4,3-d]pyrimidin-7-amine] |
| < 0.01 | – | 0.1 to 1 | COc1ccc(Nc2nc(-c3c(F)cccc3F)nc3cn[nH]c23)cc1OC [Example #281, 5-(2,6-difluorophenyl)-N-(3,4-dimethoxyphenyl)-1H-pyrazolo[4,3-d]pyrimidin-7-amine] |
| < 0.01 | – | 0.1 to 1 | Fc1cc(Nc2nc(-c3cccs3)nc3cn[nH]c23)ccc1N1CCOCC1 [Example #296, N-(3-fluoro-4-morpholinophenyl)-5-(thiophen-2-yl)-1H-pyrazolo[4,3-d]pyrimidin-7-amine] |
| < 0.01 | – | 0.01 to 0.1 | CN1CCN(C2CCN(C(=O)c3ccc(Nc4nc(-c5cccs5)nc5cn[nH]c45)cc3)CC2)CC1 [Example #297, (4-(4-methylpiperazin-1-yl)piperidin-1-yl)(4-((5-(thiophen-2-yl)-1H-pyrazolo[4,3-d]pyrimidin-7-yl)amino)phenyl)methanone] |
| < 0.01 | – | 0.1 to 1 | COc1ccc(Nc2nc(-c3ccc4c(c3)NCCO4)nc3cn[nH]c23)cc1OC [Example #300, 5-(3,4-dihydro-2H-benzo[b][1,4]oxazin-6-yl)-N-(3,4-dimethoxyphenyl)-1H-pyrazolo[4,3-d]pyrimidin-7-amine] |
| < 0.01 | – | 0.1 to 1 | Cc1nc2cc(Nc3nc(-c4ccc5c(c4)NCCO5)nc4cn[nH]c34)ccc2[nH]1 [Example #302, 5-(3,4-dihydro-2H-benzo[b][1,4]oxazin-6-yl)-N-(2-methyl-1H-benzo[d]imidazol-5-yl)-1H-pyrazolo[4,3-d]pyrimidin-7-amine] |
| < 0.01 | – | 0.1 to 1 | CN1Cc2ccc(Nc3nc(-c4cccs4)nc4cn[nH]c34)cc2C1 [Example #303, N-(2-methylisoindolin-5-yl)-5-(thiophen-2-yl)-1H-pyrazolo[4,3-d]pyrimidin-7-amine] |
